We go through three compounds from US6809083B1, “Use of N-substituted-1, 5-dideoxy-1, 5-imino-D-glucitol compounds for treating hepatitis virus infections” (priority 1998, dated 2004).

For data set [1], the system named is woodchuck hepatitis virus (WHV). As to the kind of experiment: Woodchuck model, N-nonyl-DNJ monotherapy, BID oral dosing for 4 weeks; total HBV DNA and IPDNA by quantitative PCR. It is filed as in vivo. An excerpt: In order to evaluate the efficacy of N-nonyl-DNJ in combination with 3TC (or other nucleoside or nucleotide analogs) against Hepatitis B virus in a woodchuck animal model, an monotherapy experiment using N-nonyl-DNJ alone was first conducted. This was necessary to determine if N-nonyl-DNJ has any anti-HBV effect in the woodchuck and, if N-nonyl-DNJ has a beneficial effect, to design a combination study based on the dose-response relationship of this drug alone.
Therefore, five groups of four animals each (all groups had both sexes, all but the control had two of each sex) were assigned to 0, 12.5, 25, 50, and 100 mg/kg/day with BID oral dosing. These were lab-reared wild animals. All animals were infected with woodchuck hepatitis virus (WHV) as neonates, and had been tested positive on serological tests for WHV surface antigen. Blood samples were drawn one week prior to dosing (−1 week), immediately before dosing (0 weeks), weekly during dosing (1, 2, 3, and 4 weeks), and after the end of dosing (5, 6, 8, and 10 weeks).
There are two measures of drug efficacy: reduction in total HBV DNA (measured by quantitative PCR), and reduction in HBV DNA from capsids with intact surface glycoproteins, which is the active form of the virus (measured by an ELISA-like immune precipitation assay followed by quantitative PCR).
Before models are fitted to the data, a log transform was applied because: 1) the variation in IPDNA increases with increasing IPDNA values; the log transformation gives values with a nearly constant variation, and 2) it is expected that drug effects will appear as a constant multiplier of the IPDNA level. Because there are zero values of IPDNA, a small value (about 1/2 of the smallest non-zero value) was added to all values before the log transform.
Two approaches were used to model the changes in slope to week with dose of N-nonyl-DNJ: a linear modeling approach and a nonlinear model. Both approaches assume that the (linear) rate of change of the Log(IPDNA) measure over the dosing period is the “right” measure to reflect the effect of the drug on the virus. Both approaches are fit in stages, and the first stage is common to both approaches. First, a simple straight line regression model is fit using weeks 0-4 to predict log(IPDNA+10) separately for each animal by run combination. In the second stage, the response variable is the slope fitted in the first stage.
For the linear approach, a model is fit with slope to week as the response where run is considered a block, dose has a significant effect (almost all of this effect is due to a slope to dose), and the relevant error for testing the effect of dose is the variation among animals treated alike (after the adjustment for the runs as blocks). This is similar to using the calibration data within each run to first adjust each run's data to a common virus DNA concentration; the difference is that here the data from the woodchucks are used for the run adjustment rather than only the calibration data.
For the nonlinear approach, a four parameter logistic model is fit with the slope to week as the response and the dose as the predictor. Again, run is considered a block, but because no run has all weeks, it is not possible to fully reflect the blocking in the nonlinear approach. […] The average maximum slope observed was 2.71 additional Log(IPDNA μg/mL)/week, or an increase of about 150%/week, the average minimum slope observed with N-nonyl-DNJ is 0.31 fewer Log(IPDNA μg/mL)/week), or about a decrease of about 25%/week. The slopes, the fitted model, the parameter estimates from the model, and the approximate standard errors for these parameters are all shown in FIG. 3. […] Whether in woodchucks or humans, the effective dose of both the N-alkyl-DNJ and nucleoside or nucleotide antiviral agent administered in combination therewith can be administered in two equal daily subdoses (i.e., B.I.D.).

Data set [2] concerns Hepatitis B Virus. As to the kind of experiment: IC-90 of N-nonyl-DNJ (T. Block and G. Jacob, unpublished observation). It is filed as cell-based. Here is the method: The anti-hepatitis B virus effect of (−)-2′-deoxy-3′-thiocytidine-5′-triphosphate (3TC) alone and in combination with N-nonyl-DNJ was determined according to Korba ((1996) Antiviral Research 29(1):49-51), using the “combostat” strategy (Comstat Program, Combostat Corp., Duluth, Minn.). The combostat method involves serially diluting the IC-90 of each compound. The IC-90 of N-nonyl-DNJ has been determined to be between 4 and 10 μg/ml (T. Block and G. Jacob, unpublished observation). The accepted IC-90 for 3TC in HepG 2.2.15 (2.2.15) cells is 300 nM to 500 nM (Doong et al. (1991) Proc. Natl. Acad. Sci. USA 88:8495-8499).

The next data set deals with HepG2.2.15 cells. Nature of the data set: Viability of HepG2.2.15 cells, trypan blue exclusion. It is filed as cell-based. As to conditions: [200] and [1000]; trypan blue staining not performed. The protocol: (§1) The anti-hepatitis B virus activity and effect on cell viability of a number of different N-substituted-1,5-dideoxy-1,5-imino-D-glucitol compounds were assessed using an in vitro assay employing chronically hepatitis B virus secreting HepG2.2.15 cells. The method employed was essentially that described in Block et al. (1994) Proc. Natl. Acad. Sci. USA 91:2235-2239.

Data set [3] has as its system Hepatitis B Virus. As to the kind of experiment: Hepatitis B virus secretion from chronically HBV secreting HepG2.2.15 cells (preS1 immunoprecipitation of virions, PCR of viral DNA). It is filed as cell-based. The settings on record: 3 days incubation. The protocol: as §1
Where [4] appears, read: concentration [200] (unit not given).
Where [5] appears, read: concentration [1000] (unit not given).

As to `CCCCCCCCCN1C[C@H](O)[C@@H](O)[C@H](O)[C@H]1CO` [Compound 1, N-(n-nonyl)-1,5-dideoxy-1,5-imino-D-glucitol], in data set [1] (woodchuck, all dose levels, pre-dose and dosed portions of the study), the “effect on total HBV DNA measurements” value is “no effect”. In data set [1] (woodchuck, weeks 0-4), the “average minimum slope observed” value was 0.31 fewer Log(IPDNA μg/mL)/week, the “decrease of IPDNA corresponding to average minimum slope” value is “about 25 %/week” and the “increase of IPDNA corresponding to average maximum slope” value was “about 150 %/week”. The “average maximum slope observed” value in data set [1] (woodchuck, weeks 0-4, upper end of dose-response model) was 2.71 additional Log(IPDNA μg/mL)/week. Also, the “approximate effective monotherapy dose” value in data set [1] (woodchucks, oral) is “about 16 mg/kg/day”. In addition, the concentration for an effect of 90% (IC90) with Hepatitis B Virus [2] is 4 to 10 µg/mL.
Take `CCC(CC)CN1C[C@H](O)[C@@H](O)[C@H](O)[C@H]1CO` [Compound 3, N-(2-ethylbutyl)-1,5-dideoxy-1,5-imino-D-glucitol]: in the data set with HepG2.2.15 cells, the “Appearance of cells by gross microscopic examination” value is reported as “^5Although trypan blue viability staining was not performed, cells appeared unremarkable (healthy) by gross microscopic examination”. The entries for the “Relative amount of HBV secreted, as a % of control” value with Hepatitis B Virus [3] (setting [4]) and in the data set with Hepatitis B Virus [3] (setting [5]) were 45.0 +/− 30 (n = 3) % of control and 5.0 +/− 20 (n = 3) % of control, respectively.
`CCCCN1C[C@H](O)[C@@H](O)[C@H](O)[C@H]1CO` [NBDNJ, N-(n-butyl-)-1,5-dideoxy-1,5-imino-D-glucitol, reference compound]: the “Relative amount of HBV secreted, as a % of control” value is reported as 37.0 +/− 13 (n = 15) % of control in the data set on Hepatitis B Virus [3] (setting [4]) and 3.2 +/− 5 (n = 15) % of control with Hepatitis B Virus [3] (setting [5]).

Broadly, the IC90 is the point of the concentration-response curve where the effect stands at 90%.
